Data taken from US7998990B2, “5-phenyl-thiazol-2-yl-urea derivatives and use as PI3 kinase inhibitors” (Novartis AG, priority 2006, dated 2011).

Molecular target: T1, phosphatidylinositol 3-kinase gamma isoform (p110?), recombinant GST-p110? (Homo sapiens, UniProt P48736)
T1 construct: made in house; host or cells: Sf9 (Spodoptera frugiperda) insect cells, baculovirus
Test: PI3K gamma in vitro kinase assay (Scintillation Proximity Assay, phosphate transfer from ATP to phosphatidylinositol)
Type: biochemical
Settings: for IC50: gamma isoform, fluorinated Example compound
Description: Compounds of formula I and their pharmaceutically acceptable salts, hereinafter referred to alternatively as agents of the invention, are useful as pharmaceuticals.
Baculovirus expressing different fragments of PI3K? fused to GST have been previously described by Stoyanova, S., Bulgarelli-Leva, G., Kirsch, C., Hanck, T., Klinger, R., Wetzker, R., Wymann, M. P. (1997) Lipid- and protein kinase activities of G protein-coupled PI 3-kinase g: structure-activity analysis and interactions with wortmannin. Biochem. J., 324:489. Residues 38-1102 of human PI3K? are subcloned into the BamH1 and EcoR1 sites of the transfer vector pAcG2T (Pharmingen) to create a GST-PI3K? lacking the first 37 residues of PI3K?. To express the recombinant protein, Sf9 (Spodoptera frugiperda 9) insect cells are routinely maintained at densities between 3×10^5 and 3×10^6 cells/ml in serum containing TNMFH medium (Sigma). Sf9 cells, at a density of 2×10^6 are infected with human GST-PI3K[…] 34 baculovirus at a multiplicity of infection (m.o.i.) of 1 for 72 hours. The infected cells are harvested by centrifugation at 1400 g for 4 minutes at 4° C. and the cell pellets are frozen at −80° C. Both Sf9 and Sf21 cells work equally well. Sf9 cells (1×10^9) are resuspended in 100 ml cold (4° C.) lysis buffer (50 mM Tris-HCl pH 7.5, 1% Triton X-100, 150 mM NaCl, 1 mM NaF, 2 mM DTT and protease inhibitors. Cells are incubated on ice for 30 minutes then centrifuged at 15000 g for 20 minutes at 4° C. Purification of the supernatant sample is carried out at 4° C. by affinity chromatography using SEPHAROSE™ agarose gel beads coupled to glutathione (from Amersham Pharmacia Biotech). A cell lysate/GST resin ratio of 50:1 is used. The GST resin is firstly pre-rinsed to remove ethanol preservative and then equilibrated with lysis buffer. Cell lysate (supernatant) is added (usually as 50 ml lysate to 1 ml GST resin in 50 ml tubes) and gently rotated on a mixer at 4° C. for 2-3 hours. The unbound flow through sample is collected by centrifugation at 1000 g for 5 minutes at 4° C. using a DENLEY™ centrifuge. The 1 ml GST resin containing bound material is transferred to a 15 ml FALCON™ centrifuge tube for subsequent washing and elution steps. Firstly a series of 3 cycles of washings (mixing by gentle inversion) is performed with 15 ml ice cold wash Buffer A (50 mM Tris-HCl pH 7.5, 1% Triton X-100, 2 mM DTT) interspersed with centrifugation at 1000 g for 5 minutes at 4° C. A final single wash step is performed with 15 ml ice cold wash Buffer B (50 mM Tris-HCl pH 7.5, 2 mM DTT) and then centrifuged at 1000 g for 5 minutes at 4° C. The washed GST resin is finally eluted with 4 cycles of 1 ml ice cold elution buffer (50 mM Tris-HCl pH 7.5, 10 mM reduced glutathione, 2 mM DTT, 150 mM NaCl, 1 mM NaF, 50% ethylene glycol and protease inhibitors) interspersed with centrifugation at 1000 g for 5 minutes at 4° C. Samples are aliquoted and stored at −20° C.
An in vitro kinase assay was established that measures the transfer of the terminal phosphate of adenosine triphosphate to phosphatidylinositol. The kinase reaction is performed in a white 96 well microtitre plate as a Scintillation Proximity Assay. Each well contains 10 μl test compound in 5% dimethylsulphoxide and 20 μl assay mix (40 mM Tris, 200 mM NaCl, 2 mM ethyleneglycol-aminoethyl-tetraacetic acid (EGTA), 15 μg/ml phosphatidylinositol, 12.5 μM adenosine triphosphate (ATP), 25 mM MgCl2, 0.1 μCi [^33P]ATP). […]

T1 sequence (P48736 38-1102): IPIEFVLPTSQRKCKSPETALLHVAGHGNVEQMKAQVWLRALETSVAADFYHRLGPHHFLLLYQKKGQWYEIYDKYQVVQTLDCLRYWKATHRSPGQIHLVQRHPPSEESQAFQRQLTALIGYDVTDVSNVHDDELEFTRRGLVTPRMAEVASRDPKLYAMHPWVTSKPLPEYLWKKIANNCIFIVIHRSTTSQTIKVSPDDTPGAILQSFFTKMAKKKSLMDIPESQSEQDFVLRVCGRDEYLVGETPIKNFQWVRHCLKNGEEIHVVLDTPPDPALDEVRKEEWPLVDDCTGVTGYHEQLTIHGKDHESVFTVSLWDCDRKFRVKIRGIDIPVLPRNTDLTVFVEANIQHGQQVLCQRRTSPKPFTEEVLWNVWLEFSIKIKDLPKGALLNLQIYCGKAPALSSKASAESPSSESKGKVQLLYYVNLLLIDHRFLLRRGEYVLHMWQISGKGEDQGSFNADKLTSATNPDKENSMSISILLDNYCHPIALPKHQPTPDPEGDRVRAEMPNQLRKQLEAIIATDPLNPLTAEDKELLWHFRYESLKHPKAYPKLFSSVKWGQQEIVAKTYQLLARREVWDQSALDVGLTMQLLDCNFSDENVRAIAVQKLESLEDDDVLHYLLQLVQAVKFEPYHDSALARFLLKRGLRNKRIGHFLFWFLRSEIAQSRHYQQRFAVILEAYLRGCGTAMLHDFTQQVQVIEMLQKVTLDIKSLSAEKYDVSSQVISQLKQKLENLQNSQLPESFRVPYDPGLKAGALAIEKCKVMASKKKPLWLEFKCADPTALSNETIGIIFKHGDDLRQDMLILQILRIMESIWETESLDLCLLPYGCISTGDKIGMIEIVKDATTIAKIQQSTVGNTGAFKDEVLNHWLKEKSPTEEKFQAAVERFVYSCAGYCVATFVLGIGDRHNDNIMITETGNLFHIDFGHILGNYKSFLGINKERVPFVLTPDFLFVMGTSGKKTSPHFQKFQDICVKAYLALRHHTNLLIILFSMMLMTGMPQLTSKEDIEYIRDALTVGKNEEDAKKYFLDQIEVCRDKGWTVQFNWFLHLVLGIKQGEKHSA

IC50 [µM] | increase in activity over the corresponding compound described in WO0521519 (fold, from IC50 (?) values of the table) | Molecule
0.028 |  | Cc1nc(NC(=O)NCCC(=O)NCC(F)F)sc1-c1ccc(S(C)(=O)=O)c(F)c1 [compound 2, N-(2,2-Difluoroethyl)-3-{3-[5-(3-fluoro-4-methanesulfonyl-phenyl)-4-methyl-thiazol-2-yl]-ureido}-propionamide]
0.028 |  | Cc1nc(NC(=O)NCCc2cn(CCF)cn2)sc1-c1ccc(S(C)(=O)=O)c(F)c1 [compound 7, 1-{2-[1-(2-Fluoro-ethyl)-1H-imidazol-4-yl]-ethyl}-3-[5-(3-fluoro-4-methanesulfonyl-phenyl)-4-methyl-thiazol-2-yl]-urea]
0.01 | four-fold | Cc1nc(NC(=O)NCCc2nnn(CCF)n2)sc1-c1ccc(S(C)(=O)=O)c(F)c1 [compound 8, 1-{2-[2-(2-Fluoro-ethyl)-2H-tetrazol-5-yl]-ethyl}-3-[5-(3-fluoro-4-methanesulfonyl-phenyl)-4-methyl-thiazol-2-yl]-urea]

Molecule | IC50 [µM] | increase in activity over the corresponding compound described in WO0521519 (fold, from IC50 (?) values of the table)
N-(2-Fluoro-1,1-dimethyl-ethyl-3-{3-[5-(3-fluoro-4-methanesulfonyl-phenyl)-4-methyl-thiazol-2-yl]-ureido}-propionamide [compound 1] | 0.046 | 
